Values after ≈ are worked out from the molar mass of the structure shown. Like-named read-outs stand apart in the source and are kept apart here.
How the values were obtained:
[1] = biological target: T1, beta-catenin/TCF4 engagement (Homo sapiens, UniProt P35222); assay: Nano-BRET target engagement assay (B-cat-Halo & TCF4-Luc in HEK293 cells); format: cell-based; details: read-out: NanoBRET Abs IC50
T1 construct: expressed in transfected cells; host or cells: HEK293
T1 sequence (P35222 1-781): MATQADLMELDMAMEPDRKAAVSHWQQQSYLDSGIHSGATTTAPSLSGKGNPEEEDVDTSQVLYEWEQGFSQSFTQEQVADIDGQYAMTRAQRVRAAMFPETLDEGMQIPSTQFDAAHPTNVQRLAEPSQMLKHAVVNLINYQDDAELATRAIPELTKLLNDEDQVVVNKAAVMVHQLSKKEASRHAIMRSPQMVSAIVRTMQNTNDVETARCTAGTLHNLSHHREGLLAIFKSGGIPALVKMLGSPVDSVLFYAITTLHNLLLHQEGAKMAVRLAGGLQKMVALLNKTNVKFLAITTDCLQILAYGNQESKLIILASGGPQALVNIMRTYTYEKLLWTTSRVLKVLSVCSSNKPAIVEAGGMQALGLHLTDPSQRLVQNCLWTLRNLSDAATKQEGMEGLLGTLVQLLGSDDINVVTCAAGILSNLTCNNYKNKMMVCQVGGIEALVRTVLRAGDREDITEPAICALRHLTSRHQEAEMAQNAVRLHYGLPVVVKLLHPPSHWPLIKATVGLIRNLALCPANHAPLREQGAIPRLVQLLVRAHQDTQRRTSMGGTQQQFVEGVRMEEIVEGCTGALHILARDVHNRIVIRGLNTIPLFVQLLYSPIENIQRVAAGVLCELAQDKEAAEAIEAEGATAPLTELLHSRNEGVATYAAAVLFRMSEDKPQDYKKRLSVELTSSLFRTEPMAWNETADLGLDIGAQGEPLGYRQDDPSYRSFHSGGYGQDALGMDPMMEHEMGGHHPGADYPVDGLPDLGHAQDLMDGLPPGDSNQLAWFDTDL

Solubility in PBS = format: physicochemical
Method in brief: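 Steps: ultracentrifuge the peptide PBS solution, inject the supernatant on HPLC, inject a 50 μM peptide DMSO solution as reference, then calculate solubility as area ratio (PBS/DMSO) × 50 uM.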

CHI Log D procedure = format: physicochemical; details: pH 7.4, CHI Log D
[2] = biological target: T2, full-length beta-Catenin (Uniprot ID P35222) (Homo sapiens, UniProt P35222); assay: Fluorescence polarization IC50 (beta-catenin / 5FAM-TCF4 10-53 competition); format: binding; details: read-out: beta-Catenin FP IC50
T2 construct: 10 nM full-length beta-Catenin (Uniprot ID P35222)
T2 sequence (P35222 1-781): T1 sequence (P35222 1-781)

SMILES | IC50 [1] | Solubility (Solubility in PBS) | chromatographic logD (CHI Log D procedure) | IC50 [2] | Solubility (Solubility in PBS; Solubility (uM)) | IC50 ([1]; absolute IC50)
CC(=O)N1CCC[C@]12CC=CCCCC1(CCCC=CCCCOC(=O)N3CC[C@@](C(=O)N[C@@H](Cc4ccccc4Cl)C(=O)N[C@@H](Cc4csc5ccccc45)C(=O)N[C@@H](CCC(N)=O)C(N)=O)(C3)NC(=O)[C@H](CC(C)C)NC(=O)[C@H](Cc3ccccc3)NC(=O)[C@H](C)NC(=O)[C@H](C)NC(=O)[C@H](CC(=O)O)NC(=O)[C@H](CC(=O)O)NC1=O)NC(=O)[C@H](Cc1cccc3ccccc13)NC(=O)[C@H](CC(=O)O)NC2=O (stereo partly drawn) [I-1110, Ac-PL3-Asp-1NapA-B5-Asp-Asp-Ala-Ala-Phe-Leu-PyrS2-2C1F-BztA-Gln-NH2] | > 20 µM | 10 µM (≈ 20.2 µg/mL) | 2.37 | 38 nM | – | –
CC(=O)N1CCC[C@]12CC=CCCCC1(CCCC=CCCCOC(=O)N3CC[C@@](C(=O)N[C@@H](Cc4ccccc4Cl)C(=O)N[C@@H](Cc4csc5ccccc45)C(=O)N[C@@H](CCC(N)=O)C(N)=O)(C3)NC(=O)[C@H](CC(C)C)NC(=O)[C@H](Cc3ccccc3)NC(=O)[C@H](C)NC(=O)[C@H](C)NC(=O)[C@H](CC(=O)O)NC(=O)[C@H](CC(=O)O)NC1=O)NC(=O)[C@H](Cc1ccc3ccccc3c1)NC(=O)[C@H](CC(=O)O)NC2=O (stereo partly drawn) [I-1111, Ac-PL3-Asp-2NapA-B5-Asp-Asp-Ala-Ala-Phe-Leu-PyrS2-2C1F-BztA-Gln-NH2] | > 20 µM | 10 µM (≈ 20.2 µg/mL) | 2.36 | 28 nM | – | –
CC(=O)N1CCC[C@]12CC=CCCCC1(CCCC=CCCCOC(=O)N3CC[C@@](C(=O)N[C@@H](Cc4ccccc4Cl)C(=O)N[C@@H](Cc4csc5ccccc45)C(=O)N[C@@H](CO)C(N)=O)(C3)NC(=O)[C@H]([C@@H](C)O)NC(=O)[C@H](Cc3ccccc3)NC(=O)[C@H](C)NC(=O)[C@H](C)NC(=O)[C@H](CC(=O)O)NC(=O)[C@H](CC(=O)O)NC1=O)NC(=O)[C@H](Cc1cccc3ccccc13)NC(=O)[C@H](CC(=O)O)NC2=O (stereo partly drawn) [I-1114, Ac-PL3-Asp-1NapA-B5-Asp-Asp-Ala-Ala-Phe-Thr-PyrS2-2C1F-BztA-Ser-NH2] | > 20 µM | – | 2.49 | 20 nM | 28 µM (≈ 55 µg/mL) | –
CC(=O)N1CCC[C@]12CC=CCCCC1(CCCC=CCCCOC(=O)N3CC[C@@](C(=O)N[C@@H](Cc4ccccc4Cl)C(=O)N[C@@H](Cc4csc5ccccc45)C(=O)N[C@@H](CO)C(N)=O)(C3)NC(=O)[C@H]([C@@H](C)O)NC(=O)[C@H](Cc3ccccc3)NC(=O)[C@H](C)NC(=O)[C@H](C)NC(=O)[C@H](CC(=O)O)NC(=O)[C@H](CC(=O)O)NC1=O)NC(=O)[C@H](Cc1ccc3ccccc3c1)NC(=O)[C@H](CC(=O)O)NC2=O (stereo partly drawn) [I-1115, Ac-PL3-Asp-2NapA-B5-Asp-Asp-Ala-Ala-Phe-Thr-PyrS2-2C1F-BztA-Ser-NH2] | 24.3 µM | – | 2.5 | 28 nM | 32 µM (≈ 62.8 µg/mL) | –
COc1cccc(C[C@@H]2NC(=O)[C@H](C)NC(=O)[C@H](C)NC(=O)[C@H](CC(=O)O)NC(=O)[C@H](CC(=O)O)NC(=O)C3(CCCC=CCCCOC(=O)N4CC[C@@](C(=O)N[C@@H](Cc5ccccc5Cl)C(=O)N[C@@H](Cc5csc6ccccc56)C(=O)N[C@@H](CCC(N)=O)C(N)=O)(C4)NC(=O)[C@H](CC(C)C)NC2=O)CCCC=CC[C@]2(CCCN2C(C)=O)C(=O)N[C@@H](CC(=O)O)C(=O)N[C@@H](CC(C)(C)C)C(=O)N3)c1 (stereo partly drawn) [I-1121, Ac-PL3-Asp-Npg-B5-Asp-Asp-Ala-Ala-3OMeF-Leu-PyrS2-2C1F-BztA-Gln-NH2] | 9.2 µM | – | 2.31 | 18 nM | 41 µM (≈ 81 µg/mL) | –
CC(=O)N1CCC[C@]12CC=CCCCC1(CCCC=CCCCOC(=O)N3CC[C@@](C(=O)N[C@@H](Cc4ccccc4Cl)C(=O)N[C@@H](Cc4csc5ccccc45)C(=O)N[C@@H](CCC(N)=O)C(N)=O)(C3)NC(=O)[C@H](CC(C)C)NC(=O)[C@H](Cc3ccc(C(F)(F)F)cc3)NC(=O)[C@H](C)NC(=O)[C@H](C)NC(=O)[C@H](CC(=O)O)NC(=O)[C@H](CC(=O)O)NC1=O)NC(=O)[C@H](CC(C)(C)C)NC(=O)[C@H](CC(=O)O)NC2=O (stereo partly drawn) [I-1123, Ac-PL3-Asp-Npg-B5-Asp-Asp-Ala-Ala-4F3MeF-Leu-PyrS2-2C1F-BztA-Gln-NH2] | 28.5 µM | – | 2.46 | 64 nM | 12 µM (≈ 24.2 µg/mL) | –

The next lines start with the values.

IC50 [1] | Solubility (Solubility in PBS) | chromatographic logD (CHI Log D procedure) | IC50 [2] | Solubility (Solubility in PBS; Solubility (uM)) | IC50 ([1]; absolute IC50) | SMILES
29.5 µM | – | 2.34 | 24 nM | 37 µM (≈ 73.1 µg/mL) | – | COc1cccc(C[C@@H]2NC(=O)[C@H](C)NC(=O)[C@H](C)NC(=O)[C@H](CC(=O)O)NC(=O)[C@H](CC(=O)O)NC(=O)C3(CCCC=CCCCOC(=O)N4CC[C@@](C(=O)N[C@@H](Cc5ccccc5Cl)C(=O)N[C@@H](Cc5csc6ccccc56)C(=O)N[C@@H](CCC(N)=O)C(N)=O)(C4)NC(=O)[C@H](CO)NC2=O)CCCC=CC[C@]2(CCCN2C(C)=O)C(=O)N[C@@H](CC(=O)O)C(=O)N[C@@H](CC2CCCCC2)C(=O)N3)c1 (stereo partly drawn) [I-1118, Ac-PL3-Asp-Cha-B5-Asp-Asp-Ala-Ala-3OMeF-Ser-PyrS2-2C1F-BztA-Gln-NH2]
19.4 µM | – | 2.51 | 26 nM | 31 µM (≈ 62.4 µg/mL) | – | CC(=O)N1CCC[C@]12CC=CCCCC1(CCCC=CCCCOC(=O)N3CC[C@@](C(=O)N[C@@H](Cc4ccccc4Cl)C(=O)N[C@@H](Cc4csc5ccccc45)C(=O)N[C@@H](CCC(N)=O)C(N)=O)(C3)NC(=O)[C@H](CO)NC(=O)[C@H](Cc3cccc(C(F)(F)F)c3)NC(=O)[C@H](C)NC(=O)[C@H](C)NC(=O)[C@H](CC(=O)O)NC(=O)[C@H](CC(=O)O)NC1=O)NC(=O)[C@H](CC1CCCCC1)NC(=O)[C@H](CC(=O)O)NC2=O (stereo partly drawn) [I-1119, Ac-PL3-Asp-Cha-B5-Asp-Asp-Ala-Ala-3F3MeF-Ser-PyrS2-2C1F-BztA-Gln-NH2]
> 20 µM | – | 2.54 | 85 nM | 41 µM (≈ 82.6 µg/mL) | – | CC(=O)N1CCC[C@]12CC=CCCCC1(CCCC=CCCCOC(=O)N3CC[C@@](C(=O)N[C@@H](Cc4ccccc4Cl)C(=O)N[C@@H](Cc4csc5ccccc45)C(=O)N[C@@H](CCC(N)=O)C(N)=O)(C3)NC(=O)[C@H](CO)NC(=O)[C@H](Cc3ccc(C(F)(F)F)cc3)NC(=O)[C@H](C)NC(=O)[C@H](C)NC(=O)[C@H](CC(=O)O)NC(=O)[C@H](CC(=O)O)NC1=O)NC(=O)[C@H](CC1CCCCC1)NC(=O)[C@H](CC(=O)O)NC2=O (stereo partly drawn) [I-1120, Ac-PL3-Asp-Cha-B5-Asp-Asp-Ala-Ala-4F3MeF-Ser-PyrS2-2C1F-BztA-Gln-NH2]
12.3 µM | – | 2.41 | 34 nM | 14 µM (≈ 28.2 µg/mL) | – | CC(=O)N1CCC[C@]12CC=CCCCC1(CCCC=CCCCOC(=O)N3CC[C@@](C(=O)N[C@@H](Cc4ccccc4Cl)C(=O)N[C@@H](Cc4csc5ccccc45)C(=O)N[C@@H](CCC(N)=O)C(N)=O)(C3)NC(=O)[C@H](CC(C)C)NC(=O)[C@H](Cc3cccc(C(F)(F)F)c3)NC(=O)[C@H](C)NC(=O)[C@H](C)NC(=O)[C@H](CC(=O)O)NC(=O)[C@H](CC(=O)O)NC1=O)NC(=O)[C@H](CC(C)(C)C)NC(=O)[C@H](CC(=O)O)NC2=O (stereo partly drawn) [I-1122, Ac-PL3-Asp-Npg-B5-Asp-Asp-Ala-Ala-3F3MeF-Leu-PyrS2-2C1F-BztA-Gln-NH2]
– | – | 2.22 | 12 nM | 47 µM (≈ 91.2 µg/mL) | > 20 µM | COc1cccc(C[C@@H]2NC(=O)[C@H](C)NC(=O)[C@H](C)NC(=O)[C@H](CC(=O)O)NC(=O)[C@H](CC(=O)O)NC(=O)C3(CCCC=CCCCOC(=O)N4CC[C@@](C(=O)N[C@@H](Cc5ccccc5)C(=O)N[C@@H](Cc5csc6ccccc56)C(=O)N[C@@H](CCC(N)=O)C(N)=O)(C4)NC(=O)[C@H](CO)NC2=O)CCCC=CC[C@]2(CCCN2C(C)=O)C(=O)N[C@@H](CC(=O)O)C(=O)N[C@@H](CC2CCCCC2)C(=O)N3)c1 (stereo partly drawn) [I-1124, Ac-PL3-Asp-Cha-B5-Asp-Asp-Ala-Ala-3OMeF-Ser-PyrS2-Phe-BztA-Gln-NH2]
– | – | 2.39 | 16 nM | 45 µM (≈ 89.1 µg/mL) | > 20 µM | CC(=O)N1CCC[C@]12CC=CCCCC1(CCCC=CCCCOC(=O)N3CC[C@@](C(=O)N[C@@H](Cc4ccccc4)C(=O)N[C@@H](Cc4csc5ccccc45)C(=O)N[C@@H](CCC(N)=O)C(N)=O)(C3)NC(=O)[C@H](CO)NC(=O)[C@H](Cc3cccc(C(F)(F)F)c3)NC(=O)[C@H](C)NC(=O)[C@H](C)NC(=O)[C@H](CC(=O)O)NC(=O)[C@H](CC(=O)O)NC1=O)NC(=O)[C@H](CC1CCCCC1)NC(=O)[C@H](CC(=O)O)NC2=O (stereo partly drawn) [I-1125, Ac-PL3-Asp-Cha-B5-Asp-Asp-Ala-Ala-3F3MeF-Ser-PyrS2-Phe-BztA-Gln-NH2]

From patent US20240116985A1, “STAPLED PEPTIDES AND METHODS THEREOF” (priority 2020, published 2024)
